Reference: ChEMBL document CHEMBL6083230, “Synthesis and biological evaluation of ferrostatin-based diamide derivatives as new ferroptosis inhibitors” (Bioorg Med Chem Lett, 2024)
Values after ≈ are worked out from the molar mass of the structure shown. Active and inactive are the calls of the source. The rule behind the calls is not given here.

Assays:
HUVEC [1] = assay: Anti-ferroptosis activity against […]-induced ferroptosis in HUVEC cells assessed as increase in cell viability at 10 uM incubated for 24 hrs by SRB assay; assay type: functional, cell-based; details: Homo sapiens
HUVEC [2] = assay: Anti-ferroptosis activity against […]-induced ferroptosis in HUVEC cells assessed as increase in cell viability incubated for 24 hrs by SRB assay; assay type: functional, cell-based; details: Homo sapiens
[3] = Kinetic solubility of compound; assay type: physicochemical; details: read-out: Kinetic_solubility
[4] = Metabolic stability in mouse liver microsomes assessed as half-life; assay type: ADME, Microsome
[5] = Stability in mouse plasma assessed as parent compound remaining measured after 6 hrs; assay type: ADME, cell-free; details: read-out: Stability
[6] = Metabolic stability in human liver microsomes assessed as half-life; assay type: ADME, Microsome
HUVEC [7] = assay: Anti-ferroptosis activity against erastin-induced ferroptosis in HUVEC cells assessed as reduction in accumulation of lipid peroxidation at 10 uM incubated for 24 hrs by LPO assay; assay type: functional, cell-based; details: Homo sapiens
HUVEC [8] = assay: Anti-ferroptosis activity against erastin-induced ferroptosis in HUVEC cells assessed as upregulation of intracellular GSH level at 10 uM incubated for 24 hrs; assay type: functional, cell-based; details: Homo sapiens
HUVEC [9] = assay: Anti-ferroptosis activity against erastin-induced ferroptosis in HUVEC cells assessed as decrease in intracellular lipid ROS level at 10 uM incubated for 24 hrs by BODIPY 581/591 dye based assay; assay type: functional, cell-based; details: Homo sapiens
HUVEC [10] = assay: Anti-ferroptosis activity against erastin-induced ferroptosis in HUVEC cells assessed as decrease in free ferrous ion level at 10 uM incubated for 24 hrs by Ferro orange fluorescent probe based assay; assay type: functional, cell-based; details: Homo sapiens
HUVEC [11] = assay: Anti-ferroptosis activity against erastin-induced ferroptosis in HUVEC cells assessed as reduction in malondialdehyde content at 10 uM incubated for 24 hrs by lipid peroxidation MDA assay; assay type: functional, cell-based; details: Homo sapiens
HUVEC [12] = assay: Anti-ferroptosis activity against erastin-induced ferroptosis in HUVEC cells assessed as upregulation of intracellular GPX4 level at 10 uM incubated for 24 hrs by Western blot analysis; assay type: functional, cell-based; details: Homo sapiens

## CCNC(=O)c1ccc(NC2CCCCC2)c(NC(=O)Cc2ccc(C)cc2)c1
HUVEC [1]
  Activity: inactive

## CCNC(=O)c1ccc(NC2CCCCC2)c(NC(=O)Cc2cccc(Br)c2)c1
HUVEC [1]
  Activity: inactive

## CCNC(=O)c1ccc(NC2CCCCC2)c(NC(=O)/C=C/c2ccccc2OC)c1
HUVEC [1]
  Activity: Active; Compound Exhibited Comparable Activity To Ferrostatin-1
HUVEC [2]
  EC50: 1100 nM

## CCNC(=O)c1ccc(NC2CCCCC2)c(NC(=O)/C=C/c2cccc(Br)c2)c1
HUVEC [1]
  Activity: Active

## CCNC(=O)c1ccc(NC2CCCCC2)c(NC(=O)Cc2cccc(OC)c2)c1
HUVEC [1]
  Activity: Active

## CCNC(=O)c1ccc(NC2CCCCC2)c(NC(=O)C(c2ccccc2)c2ccccc2)c1
HUVEC [1]
  Activity: Active; Compound Exhibited Comparable Activity To Ferrostatin-1
HUVEC [2]
  EC50: 1000 nM

## CCNC(=O)c1ccc(NC2CCCCC2)c(NC(=O)Cc2ccc(F)c(Br)c2)c1
HUVEC [1]
  Activity: Active

## CCNC(=O)c1ccc(NC2CCCCC2)c(NC(=O)Cc2ccc(OC)c(OC)c2)c1
HUVEC [1]
  Activity: Active

## CCNC(=O)c1ccc(NC2CCCCC2)c(NC(=O)Cc2ccc(OC)c(Br)c2)c1
HUVEC [1]
  Activity: inactive

## CCNC(=O)c1ccc(NC2CCCCC2)c(NC(=O)Cc2cc(Br)cc(Br)c2)c1
HUVEC [1]
  Activity: Active

## CCNC(=O)c1ccc(NC2CCCCC2)c(NC(=O)/C=C/c2ccc(O)c(OC)c2)c1
HUVEC [1]
  Activity: Active

## CCNC(=O)c1ccc(NC2CCCCC2)c(NC(=O)/C=C/c2cccc(OC)c2OC)c1
HUVEC [1]
  Activity: Active

## CCNC(=O)c1ccc(NC2CCCCC2)c(NC(=O)Cc2cc(F)c(F)cc2Br)c1
HUVEC [1]
  Activity: Active; Compound Exhibited Comparable Activity To Ferrostatin-1
HUVEC [2]
  EC50: 810 nM

## CCNC(=O)c1ccc(NC2CCCCC2)c(NC(=O)CCc2ccc(OC)cc2)c1
HUVEC [1]
  Activity: Active

## CCNC(=O)c1ccc(NC2CCCCC2)c(NC(=O)Cc2cc(Br)ccc2Br)c1
HUVEC [1]
  Activity: inactive

## CCNC(=O)c1ccc(NC2CCCCC2)c(NCc2ccccc2)c1
[3]
  solubility kinetic: 50 µM (≈ 17.6 µg/mL)
HUVEC [1]
  Activity: Active; Compound Exhibited Comparable Activity To Ferrostatin-1
HUVEC [2]
  EC50: 6200 nM
[4]
  half-life: 19.6 min
[5]
  remaining at 6 h: 0%
[6]
  half-life: 38.9 min

## CCNC(=O)c1ccc(NC2CCCCC2)c(NC(=O)/C=C/c2ccccc2)c1
HUVEC [1]
  Activity: Active; Compound Exhibited Comparable Activity To Ferrostatin-1
HUVEC [2]
  EC50: 900 nM

## CCNC(=O)c1ccc(NC2CCCCC2)c(NC(=O)Cc2ccc(F)cc2)c1
HUVEC [1]
  Activity: Active

## CCNC(=O)c1ccc(NC2CCCCC2)c(NC(=O)Cc2ccc(OC)cc2)c1
HUVEC [1]
  Activity: Active; Compound Exhibited Comparable Activity To Ferrostatin-1
HUVEC [2]
  EC50: 980 nM

## CCNC(=O)c1ccc(NC2CCCCC2)c(NC(=O)Cc2cc(OC)c(OC)c(OC)c2)c1
HUVEC [1]
  Activity: inactive

## CCNC(=O)c1ccc(NC2CCCCC2)c(NC(=O)Cc2cc(Br)ccc2F)c1
HUVEC [1]
  Activity: Active

## CCNC(=O)c1ccc(NC2CCCCC2)c(NC(=O)/C=C/c2cc(OC)c(OC)cc2OC)c1
[3]
  solubility kinetic: 33.3 µM (≈ 16 µg/mL)
HUVEC [7]
  Activity: Active
HUVEC [1]
  Activity: Active; Compound Exhibited Comparable Activity To Ferrostatin-1; Most Significant Efficacy Observed
HUVEC [2]
  EC50: 580 nM
[4]
  half-life: 31.4 min
HUVEC [8]
  Activity: Active
HUVEC [9]
  Activity: Active
[5]
  remaining at 6 h: 48%
HUVEC [10]
  Activity: Active; Higher Effectiveness Compared To Ferrostatin-1
HUVEC [11]
  Activity: Active
HUVEC [12]
  Activity: Active
[6]
  half-life: 62.7 min

## CCOC(=O)c1ccc(NC2CCCCC2)c(N)c1
[3]
  solubility kinetic: > 200 µM
HUVEC [7]
  Activity: Active
HUVEC [1]
  Activity: Active
[4]
  half-life: 2.7 min
HUVEC [8]
  Activity: Active
HUVEC [9]
  Activity: Active
[5]
  remaining at 6 h: 18%
HUVEC [10]
  Activity: Active
HUVEC [11]
  Activity: Active
HUVEC [12]
  Activity: Active
[6]
  half-life: 16.8 min
